Values of other authors in patent US11051972B1 (priority 2020, dated 2021).
Like-named read-outs stand apart in the source and are kept apart here.

Legend:
[1] = tested on: novel coronavirus (COVID-19); settings: multi-center study in China, journal article [14, 20]

Row | Compound | effectiveness against the novel coronavirus (COVID-19) [1] | % Excreted Unchanged or Active Metabolite in Urine (in vivo) [%] | % Excreted Unchanged or Active Metabolite in Urine (urine) [%]
1 | CCN(CC)CCCC(C)Nc1ccnc2cc(Cl)ccc12 (stereo not shown) [Chloroquine] | effective | 70 | 
2 | C[C@H]1COc2c(N3CCN(C)CC3)c(F)cc3c(=O)c(C(=O)O)cn1c23 [Levaquin] |  | 85 | 
3 | CCC(CC)[C@H](NC(C)=O)[C@@H]1[C@H](O)[C@@H](C(=O)O)C[C@H]1N=C(N)N [Rapivab] |  |  | 90
4 | CC(=O)N[C@H]1[C@H]([C@H](O)[C@H](O)CO)OC(C(=O)O)=C[C@@H]1N=C(N)N [Relenza] |  |  | 90
5 | CCC(CC)COC(=O)[C@H](C)N[P@](=O)(OC[C@H]1O[C@@](C#N)(c2ccc3c(N)ncnn23)[C@H](O)[C@@H]1O)Oc1ccccc1 [Remdesevir] |  |  | 60
6 | CCOC(=O)C1=C[C@@H](OC(CC)CC)[C@H](NC(C)=O)[C@@H](N)C1 [Tamiflu] |  |  | 90
